This is an account of results in patent publication US20260125378A2, “Heterocyclic Compounds” (BeOne Medicines I GmbH, priority 2023, published 2026).

SMILES strings stand for the structures. Where only a bound is given, the exact number is not on record here.

The target of assay [1] is T1, Full length DGKα (D21-10BG, SignalChem) (Homo sapiens, UniProt P23743).
T1 construct: Full length DGKα (D21-10BG, SignalChem); purchased SignalChem D21-10BG
The assay is described as follows: Biochemical DGK IC50 assay (ADP-Glo, lipid micelle substrate), DGKα. The conditions noted are these: 1 hour preincubation, 1 hour reaction, room temperature. The procedure, abridged: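 Full-length human DGKα with DAG/PS lipid micelle substrate (in octyl glucoside buffer), reacted 1 h at room temperature in 50 mM HEPES, 10 mM MgCl2, 0.01 mM CaCl2, 0.1 mM Na3VO4, 0.01% BSA, 0.005% Tween-20. ADP formed read by ADP-Glo luminescence; IC50 from inhibition across increasing compound concentrations.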
(ADP-Glo first removes unused ATP, then detects ADP through luciferase.)

Assay [2] has as its target T2, Full length DGKζ (in-house protein M1-V929) (Homo sapiens, UniProt Q13574).
T2 construct: His (N); TEV site (N); made in house; host or cells: Sf9 insect cells (Bac-to-Bac baculovirus)
The assay is described as follows: Biochemical DGK IC50 assay (ADP-Glo, lipid micelle substrate), DGKζ. The conditions noted are these: 1 hour preincubation, 1 hour reaction, room temperature. In a few lines:
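Full-length human DGKζ (M1-V929, His-TEV tagged, Sf9 baculovirus-expressed) with DAG/PS lipid micelle substrate in octyl glucoside, at room temperature in 50 mM HEPES, 10 mM MgCl2, 0.01 mM CaCl2 buffer.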

T1 sequence (P23743 whole entry): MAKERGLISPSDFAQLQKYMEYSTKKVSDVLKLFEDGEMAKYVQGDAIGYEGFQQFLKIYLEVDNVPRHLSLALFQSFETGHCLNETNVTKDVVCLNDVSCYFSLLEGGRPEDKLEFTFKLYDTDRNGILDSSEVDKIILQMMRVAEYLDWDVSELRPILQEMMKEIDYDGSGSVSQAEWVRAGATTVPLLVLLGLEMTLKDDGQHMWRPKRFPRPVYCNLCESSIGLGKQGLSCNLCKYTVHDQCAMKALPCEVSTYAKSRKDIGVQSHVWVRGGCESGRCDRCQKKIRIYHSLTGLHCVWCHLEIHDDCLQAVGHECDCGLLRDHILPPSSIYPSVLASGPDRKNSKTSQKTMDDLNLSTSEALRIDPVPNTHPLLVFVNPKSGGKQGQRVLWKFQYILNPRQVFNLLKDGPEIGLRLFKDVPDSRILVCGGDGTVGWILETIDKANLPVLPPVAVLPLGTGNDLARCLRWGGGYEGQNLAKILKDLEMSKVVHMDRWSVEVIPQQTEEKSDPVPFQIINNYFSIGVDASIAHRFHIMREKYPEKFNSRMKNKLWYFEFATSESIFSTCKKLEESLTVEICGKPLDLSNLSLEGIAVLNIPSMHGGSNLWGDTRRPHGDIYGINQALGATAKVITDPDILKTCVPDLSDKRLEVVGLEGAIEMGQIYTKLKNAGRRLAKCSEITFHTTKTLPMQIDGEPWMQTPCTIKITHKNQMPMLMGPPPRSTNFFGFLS
T2 sequence (Q13574 1-929 isoform Q13574-4): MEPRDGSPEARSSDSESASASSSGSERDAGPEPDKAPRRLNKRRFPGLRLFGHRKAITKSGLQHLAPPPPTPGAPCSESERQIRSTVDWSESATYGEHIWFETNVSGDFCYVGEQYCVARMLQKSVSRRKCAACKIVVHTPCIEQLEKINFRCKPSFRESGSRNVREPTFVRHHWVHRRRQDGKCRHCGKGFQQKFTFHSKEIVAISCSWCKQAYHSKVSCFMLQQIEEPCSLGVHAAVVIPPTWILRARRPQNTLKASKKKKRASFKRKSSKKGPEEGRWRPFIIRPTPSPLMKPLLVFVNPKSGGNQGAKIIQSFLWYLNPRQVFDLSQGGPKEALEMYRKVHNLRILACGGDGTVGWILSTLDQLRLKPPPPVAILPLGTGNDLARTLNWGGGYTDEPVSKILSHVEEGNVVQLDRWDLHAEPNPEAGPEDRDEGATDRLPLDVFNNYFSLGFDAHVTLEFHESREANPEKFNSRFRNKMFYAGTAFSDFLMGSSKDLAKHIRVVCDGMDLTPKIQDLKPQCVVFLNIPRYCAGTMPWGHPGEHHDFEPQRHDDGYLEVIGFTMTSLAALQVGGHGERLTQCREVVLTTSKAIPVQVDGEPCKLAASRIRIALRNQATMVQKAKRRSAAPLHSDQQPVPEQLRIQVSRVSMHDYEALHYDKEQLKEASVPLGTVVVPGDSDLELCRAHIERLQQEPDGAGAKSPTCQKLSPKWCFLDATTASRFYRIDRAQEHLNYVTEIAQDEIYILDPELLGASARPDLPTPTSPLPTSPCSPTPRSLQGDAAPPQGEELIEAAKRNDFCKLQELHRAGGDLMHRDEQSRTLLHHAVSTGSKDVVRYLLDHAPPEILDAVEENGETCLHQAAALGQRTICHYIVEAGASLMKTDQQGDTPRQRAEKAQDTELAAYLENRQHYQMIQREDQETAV

For orientation: IC50 means the concentration needed to halve the response being measured. A low value points to greater potency in that assay. Take `CC(c1ccc(F)cc1OC(F)F)N1C[C@H](C)N(c2nc(=O)n(C)c3c2nc(CC#N)n3C)C[C@H]1C` (stereo partly drawn) [Compound A25, 2-(6-((2S,5R)-4-(1-(2-(difluoromethoxy)-4-fluorophenyl)ethyl)-2,5-dimethylpiperazin-1-yl)-3,9-dimethyl-2-oxo-3,9-dihydro-2H-purin-8-yl)acetonitrile]: the IC50 in assay [1] came to 36900 nM; in assay [2] it was 15 nM.

Take `CC(c1ccc(F)cc1C(F)(F)F)N1C[C@H](C)N(c2cc(=O)n(C)c3[nH]c(CC#N)nc23)C[C@H]1C` (single isomer, unassigned) [Compound A9a]: the concentration for half-maximal inhibition (IC50) in assay [1] was above 10000 nM; in assay [2] it was 8590 nM.

As for `COC(C)c1cc(F)ccc1C(C)N1C[C@H](C)N(c2nc(=O)n(C)c3c2nc(CC#N)n3C)C[C@H]1C` (stereo partly drawn) [Compound A28, 2-(6-((2S,5R)-4-(1-(4-fluoro-2-(1-methoxyethyl)phenyl)ethyl)-2,5-dimethylpiperazin-1-yl)-3,9-dimethyl-2-oxo-3,9-dihydro-2H-purin-8-yl)acetonitrile], the IC50 in assay [1] is 96900 nM; in assay [2], 3 nM.

Regarding `CCn1c(CC#N)nc2c(N3C[C@@H](C)N(C(C)c4ccc5c(c4F)OC(C)(C)O5)C[C@@H]3C)c(F)c(=O)n(C)c21` (single isomer, unassigned) [Compound A190b], the IC50 in assay [1] is 38200 nM; in assay [2] it was 41 nM.

As to `CCn1c(CC#N)nc2c(N3C[C@@H](C)N(C(C)c4nc5c(cc4Cl)OCC(C)(C)O5)C[C@@H]3C)nc(=O)n(C)c21` (stereo partly drawn) [Compound A160, 2-(6-((2S,5R)-4-(1-(7-chloro-3,3-dimethyl-2,3-dihydro-[1,4]dioxino[2,3-b]pyridin-6-yl)ethyl)-2,5-dimethylpiperazin-1-yl)-9-ethyl-3-methyl-2-oxo-3,9-dihydro-2H-purin-8-yl)acetonitrile], the half-maximal inhibitory concentration (IC50) in assay [1] was above 150000 nM; in assay [2], 331 nM.

Consider `Cc1cnc2ccc(C(C)N3C[C@H](C)N(c4nc(=O)n(C)c5c4nc(CC#N)n5C)C[C@H]3C)cc2n1` (single isomer, unassigned) [Compound A49a], for which the half-inhibitory concentration (IC50) stood at 77900 nM in assay [1] and 6 nM in assay [2].

Take `CCn1c(CC#N)nc2c(N3C[C@@H](C)N(C(C)c4ccc5c(c4)OC(C)(C)O5)C[C@@H]3C)nc(=O)n(C)c21` (single isomer, unassigned) [Compound A85b]: the IC50 in assay [1] was 88600 nM; in assay [2], 14 nM.

On to `CCn1c(CC#N)nc2c(N3C[C@@H](C)N(C(C)c4ccc5c(c4Cl)OC(C)(C)O5)C[C@@H]3C)nc(=O)n(C)c21` (single isomer, unassigned) [Compound A172a], for which the IC50 in assay [1] came out at 132000 nM; in assay [2], 170 nM.

Consider `COc1cc(F)ccc1C(C)N1C[C@H](C)N(c2cc(=O)n(C)c3c2nc(CC#N)n3C)C[C@H]1C` (single isomer, unassigned) [Compound A4b], for which the results for the half-maximal inhibitory concentration (IC50) in assay [1] and in assay [2] were above 10000 nM and 64 nM, respectively.

For `CCn1c(CC#N)nc2c(N3C[C@@H](C)N(C(C)c4nc5c(cc4F)OCC(C)(C)O5)C[C@@H]3C)nc(=O)n(C)c21` (single isomer, unassigned) [Compound A161a], the figures for the IC50 in assay [1] and in assay [2] were 71800 nM and 24 nM, respectively.

Regarding `CCn1c(CC#N)nc2c(N3C[C@@H](C)N(C(C)c4c(F)cc5c(c4F)OC(C)(C)O5)C[C@@H]3C)nc(=O)n(C)c21` (single isomer, unassigned) [Compound A176b], the values for the IC50 in assay [1] and in assay [2] were 7190 nM and 7 nM, respectively.

Turning to `CCn1c(CC#N)nc2c(N3C[C@@H](C)N(C(C)c4ccc5c(c4)OC(C)(C)C5)C[C@@H]3C)nc(=O)n(C)c21` (stereo partly drawn) [Compound A97, 2-(6-((2S,5R)-4-(1-(2,2-dimethyl-2,3-dihydrobenzofuran-6-yl)ethyl)-2,5-dimethylpiperazin-1-yl)-9-ethyl-3-methyl-2-oxo-3,9-dihydro-2H-purin-8-yl)acetonitrile], the figures for the IC50 in assay [1] and in assay [2] were 51100 nM and 11 nM, respectively.

Consider `CC[C@H]1CN(C(C)c2ccc(F)cc2C(F)(F)F)[C@H](CC)CN1c1nc(=O)n(C)c2c1nc(CC#N)n2C` (single isomer, unassigned) [Compound A34a], for which the concentration for half-maximal inhibition (IC50) is above 10000 nM in assay [1] and 392 nM in assay [2].

In the case of `COC[C@H]1CN(C(C)c2ccc(F)cc2C(F)(F)F)[C@H](C)CN1c1nc(=O)n(C)c2c1nc(CC#N)n2C` (single isomer, unassigned) [Compound A10b], the IC50 was above 10000 nM in assay [1] and 14 nM in assay [2].

`CCn1c(CC#N)nc2c(N3C[C@@H](C)N(C(C)c4ccnc5c4OCCC5(F)F)C[C@@H]3C)nc(=O)n(C)c21` (single isomer, unassigned) [Compound A103a]: the 50% inhibitory concentration (IC50) is above 150000 nM in assay [1] and 524 nM in assay [2].

`CCn1c(CC#N)nc2c(N3C[C@@H](C)N(C(C)c4cccc(C(C)(C)C#N)c4)C[C@@H]3C)nc(=O)n(C)c21` (stereo partly drawn) [Compound A134, 2-(3-(1-((2R,5S)-4-(8-(cyanomethyl)-9-ethyl-3-methyl-2-oxo-3,9-dihydro-2H-purin-6-yl)-2,5-dimethylpiperazin-1-yl)ethyl)phenyl)-2-methylpropanenitrile]: the IC50 in assay [1] was found to be 113000 nM; in assay [2] it was 22 nM.

Consider `CCn1c(CC#N)nc2c(N3C[C@@H](C)N(C(C)c4ccc5c(c4)OC(C)(C)CO5)C[C@@H]3C)nc(=O)n(C)c21` (single isomer, unassigned) [Compound A60a], for which the IC50 came to 72500 nM in assay [1] and 3.3 nM in assay [2].

Regarding `Cc1cnc2ccc(C(C)N3C[C@H](C)N(c4nc(=O)n(C)c5c4nc(CC#N)n5C)C[C@H]3C)cc2n1` (single isomer, unassigned) [Compound A49b], the IC50 was above 150000 nM in assay [1] and 400 nM in assay [2].

For the compound `CCn1c(CC#N)nc2c(N3C[C@@H](C)N(C(C)c4ccc5c(n4)OC(C)(C)C5)C[C@@H]3C)nc(=O)n(C)c21` (stereo partly drawn) [Compound A180, 2-(6-((2S,5R)-4-(1-(2,2-dimethyl-2,3-dihydrofuro[2,3-b]pyridin-6-yl)ethyl)-2,5-dimethylpiperazin-1-yl)-9-ethyl-3-methyl-2-oxo-3,9-dihydro-2H-purin-8-yl)acetonitrile], the figures for the IC50 in assay [1] and in assay [2] were above 150000 nM and 4440 nM, respectively.

For `[2H]C([2H])([2H])n1c(CC#N)nc2c(N3C[C@@H](C)N(C(C)c4ccc(F)cc4C(F)(F)F)C[C@@H]3C)nc(=O)n(C([2H])([2H])[2H])c21` (stereo partly drawn) [Compound A36, 2-(6-((2S,5R)-4-(1-(4-fluoro-2-(trifluoromethyl)phenyl)ethyl)-2,5-dimethylpiperazin-1-yl)-3,9-bis(methyl-d3)-2-oxo-3,9-dihydro-2H-purin-8-yl)acetonitrile], the IC50 in assay [1] came to 104000 nM; in assay [2], 17 nM.

As to `COCc1cc(F)ccc1C(C)N1C[C@H](C)N(c2nc(=O)n(C)c3c2nc(CC#N)n3C)C[C@H]1C` (single isomer, unassigned) [Compound A27b], the results for the half-inhibitory concentration (IC50) in assay [1] and in assay [2] were 99500 nM and 15 nM, respectively.

On to `CCn1c(CC#N)nc2c(N3C[C@@H](C)N(C(C)c4ccc5c(n4)OC(C)CO5)C[C@@H]3C)nc(=O)n(C)c21` (stereo partly drawn) [Compound A89, 2-(6-((2S,5R)-2,5-dimethyl-4-(1-(3-methyl-2,3-dihydro-[1,4]dioxino[2,3-b]pyridin-6-yl)ethyl)piperazin-1-yl)-9-ethyl-3-methyl-2-oxo-3,9-dihydro-2H-purin-8-yl)acetonitrile], for which the 50% inhibitory concentration (IC50) in assay [1] was above 150000 nM; in assay [2], 334 nM.

For the compound `CCn1c(CC#N)nc2c(N3C[C@@H](C)N(C(C)c4ccc5sc(C)nc5c4)C[C@@H]3C)nc(=O)n(C)c21` (stereo partly drawn) [Compound A55, 2-(6-((2S,5R)-2,5-dimethyl-4-(1-(2-methylbenzo[d]thiazol-5-yl)ethyl)piperazin-1-yl)-9-ethyl-3-methyl-2-oxo-3,9-dihydro-2H-purin-8-yl)acetonitrile], the half-inhibitory concentration (IC50) in assay [1] amounted to 68700 nM; in assay [2], 31 nM.

As for `CC(c1ccc(F)cc1C(F)(F)F)N1C[C@H](C)N(c2cc(=O)n(C)c3sc(CC#N)nc23)C[C@H]1C` (stereo partly drawn) [Compound A195, 2-(7-((2S,5R)-4-(1-(4-fluoro-2-(trifluoromethyl)phenyl)ethyl)-2,5-dimethylpiperazin-1-yl)-4-methyl-5-oxo-4,5-dihydrothiazolo[5,4-b]pyridin-2-yl)acetonitrile], the values for the IC50 in assay [1] and in assay [2] were above 150000 nM and 25 nM, respectively.

In the case of `CC(c1ccc(F)cc1C(F)(F)F)N1C[C@H](C)N(c2nc(=O)n(C)c3c2nc(CC#N)n3C)C[C@H]1C` (single isomer, unassigned) [Compound A33b], the IC50 in assay [1] was above 10000 nM; in assay [2], 3 nM.

For the compound `CCn1c(CC#N)nc2c(N3C[C@@H](C)N(C(C)c4cc(F)c5c(n4)OC(C)(C)CO5)C[C@@H]3C)nc(=O)n(C)c21` (mixture of isomers) [Compound A163, 2-(9-ethyl-6-((2S,5R)-4-(1-(8-fluoro-3,3-dimethyl-2,3-dihydro-[1,4]dioxino[2,3-b]pyridin-6-yl)ethyl)-2,5-dimethylpiperazin-1-yl)-3-methyl-2-oxo-3,9-dihydro-2H-purin-8-yl)acetonitrile], the figures for the IC50 in assay [1] and in assay [2] were above 150000 nM and 48 nM, respectively.

For the compound `CCn1c(CC#N)nc2c(N3C[C@@H](C)N(C(C)c4cccc(OC(F)(F)F)c4)C[C@@H]3C)nc(=O)n(C)c21` (stereo partly drawn) [Compound A44, 2-(6-((2S,5R)-2,5-dimethyl-4-(1-(3-(trifluoromethoxy)phenyl)ethyl)piperazin-1-yl)-9-ethyl-3-methyl-2-oxo-3,9-dihydro-2H-purin-8-yl)acetonitrile], the half-inhibitory concentration (IC50) was 51200 nM in assay [1] and 34 nM in assay [2].
